Test results taken from PMC3058872 (Archives of biochemistry and biophysics, 2010).

How the values were obtained:
EI^Ntr (Enzyme I^Ntr) [1] = biological target: T1, EI^Ntr (Enzyme I^Ntr) (Escherichia coli, UniProt P37177, H356A); test: intrinsic Trp fluorescence titration; format: binding
EI^Ntr (Enzyme I^Ntr) [2] = biological target: T1, EI^Ntr (Enzyme I^Ntr); test: thermal unfolding followed by Trp fluorescence; format: binding; conditions: hydrogenated protein, 150 μM PEP, 20 mM Tris-Cl pH 8, 2 mM MgCl2, scan 30 °C/h

T1 sequence (P37177 170-748 H356A limits assumed): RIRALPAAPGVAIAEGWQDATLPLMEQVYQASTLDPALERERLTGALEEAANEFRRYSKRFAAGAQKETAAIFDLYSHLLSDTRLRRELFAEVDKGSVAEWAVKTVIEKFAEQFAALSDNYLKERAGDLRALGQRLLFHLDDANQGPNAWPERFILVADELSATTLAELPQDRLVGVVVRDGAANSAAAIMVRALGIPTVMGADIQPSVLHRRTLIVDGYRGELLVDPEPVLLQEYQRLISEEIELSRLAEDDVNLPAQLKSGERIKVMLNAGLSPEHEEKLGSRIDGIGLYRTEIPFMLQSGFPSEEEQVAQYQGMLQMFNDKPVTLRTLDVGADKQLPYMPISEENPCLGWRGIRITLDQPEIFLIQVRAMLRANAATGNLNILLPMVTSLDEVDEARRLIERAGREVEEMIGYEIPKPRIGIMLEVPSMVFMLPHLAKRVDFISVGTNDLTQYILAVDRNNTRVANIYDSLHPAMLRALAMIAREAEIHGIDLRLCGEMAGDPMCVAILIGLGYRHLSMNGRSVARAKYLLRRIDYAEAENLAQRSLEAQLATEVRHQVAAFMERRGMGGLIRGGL

Kd (EI^Ntr (Enzyme I^Ntr) [1]): 21 µM | stabilization due to PEP binding (dTm) (EI^Ntr (Enzyme I^Ntr) [2]): 4.04 °C
Structure (SMILES): C=C(OP(=O)(O)O)C(=O)O [PEP]
